Each structure is given as a SMILES string.

This assay deals with CSM14.1 cells, thapsigargin, p-p38/p38 MSD immunoassay. Nature of the assay: dose-dependent blockade of p38 phosphorylation, dose response, mechanism study for ER stress cell death project, cell lysate, CSM14.1 cells, thapsigargin, immunoblotting (AID 1387). As to conditions: at 10 µM (top of the series). On the technique in general: In western blotting, separated proteins are transferred to a membrane and probed.

Regarding `COc1ccc(C2CC(=O)C3=C(C2)Nc2ccccc2NC3c2cccc(Oc3ccccc3)c2)cc1OC` (stereo unspecified), the relative p-p38/p38 ratio, lower = inhibition was 0.

These data come from PubChem BioAssay AID1387 (Sanford-Burnham Center for Chemical Genomics, 2008).
